# Experimental data reported in patent US7208511B2, “Microbicidal composition” (Rohm and Haas Company, priority 2003, dated 2007).
# How the values were obtained:
# [1] = tested on: Mixed Bacteria; experiment: Speed of Kill test in TSB; assay type: cell-based; conditions: for Minimum Effective Concentration ALONE: 5-log reduction criteria, no end point measured, value is 2× the highest level tested (Lazonby)
# From the text: (§1) One measure of synergism is the industrially accepted method described by Kull, F. C.; Eisman, P. C.; Sylwestrowicz, H. D. and Mayer, R. L., in Applied Microbiology 9:538–541 (1961), using the ratio determined by the formula: Qa/QA+Qb/QB=Synergy Index (“SI”) wherein: • QA=concentration of compound A (first component) in ppm, acting alone, which produced an end point (MIC of Compound A). • Qa=concentration of compound A in ppm, in the mixture, which produced an end point. • QB=concentration of compound B (second component) in ppm, acting alone, which produced an end point (MIC of Compound B). • Qb=concentration of compound B in ppm, in the mixture, which produced an end point.
# (§2) When the sum of Qa/QA and Qb/QB is greater than one, antagonism is indicated. […] The lower the SI, the greater the synergy shown by that particular mixture. The minimum inhibitory concentration (MIC) of a microbicide is the lowest concentration tested under a specific set of conditions that prevents the growth of added microorganisms.
# To evaluate “Speed of Kill” an aliquot of 30 g of pH 8 TSB was dispensed in sterile 2 oz (60 mL) jars. Biocides stock solution was added into each jar to achieve the final concentration. The test samples were inoculated with 0.3 ml of mixed bacterial inoculum (resulting in 10^6/ml bacteria per ml of test solution). Samples were then placed in a shaker water bath at 30° C. Bacterial growth was monitored via the microtiter MPN method using the BECKMAN AUTOMATIC 2000 Workstation after 30 min, 1, 4, 24, 48, 72 hours and again 6–7 days contact time. The microtiter plates were incubated at 30° C. for 2 days.
# (§3) In each test, First Component (A) was MI and the Second Component (B) was DBNPA. “NG” means that no growth was observed.
# [2] = tested on: Mixed Bacteria; experiment: Minimum Inhibitory Concentration (MIC) synergy test, microtiter plate; assay type: cell-based; conditions: after 24 hours at 30° C.
# From the text: as §1, §2
# Synergy tests were conducted using standard microtiter plate assays with media designed for optimal growth of the test microorganism. […] High resolution MICs were determined by adding varying amounts of microbicide to one column of a microtitre plate and doing subsequent ten-fold dilutions using an automated liquid handling system to obtain a series of endpoints ranging from 2 ppm to 10,000 ppm active ingredient. The combinations of the present invention were tested against three bacteria, Pseudomonas aeruginosa (P. aeruginosa —ATCC #15442), Enterobacter aerogenes (ATCC #13048), and Kiebsiella pneumoniae (ATCC #13883). The bacteria were used at a concentration of about 10^8 bacteria per mL. These microorganisms are representative of natural contaminants in many consumer and industrial applications. The plates were visually evaluated for microbial growth (turbidity) to determine the MIC after various incubation times at 30° C.
# as §3
smiles,measurement,setting,value
"Cn1sccc1=O [MI, 2-methyl-4-isothiazolin-3-one]",Minimum Effective Concentration ALONE,[1]; 24 hr,300 ppm AI
same,Minimum Effective Concentration ALONE,[1]; 48 hr,300 ppm AI
same,Minimum Effective Concentration ALONE,[1]; 72 hr,300 ppm AI
same,CFU/ml Bacteria Log Reduction vs Control,"[1]; MI 25 ppm AI alone, 30 min @ 30° C.",−0.3 log
same,CFU/ml Bacteria Log Reduction vs Control,"[1]; MI 25 ppm AI alone, 1 hr @ 30° C.",0.0 log
same,CFU/ml Bacteria Log Reduction vs Control,"[1]; MI 25 ppm AI alone, 4 hr @ 30° C.",0.2 log
same,CFU/ml Bacteria Log Reduction vs Control,"[1]; MI 25 ppm AI alone, 24 hr @ 30° C.",−1.3 log
same,CFU/ml Bacteria Log Reduction vs Control,"[1]; MI 25 ppm AI alone, 48 hr @ 30° C.",−2.0 log
same,CFU/ml Bacteria Log Reduction vs Control,"[1]; MI 50 ppm AI alone, 30 min @ 30° C.",0.4 log
same,CFU/ml Bacteria Log Reduction vs Control,"[1]; MI 50 ppm AI alone, 1 hr @ 30° C.",0.2 log
same,CFU/ml Bacteria Log Reduction vs Control,"[1]; MI 50 ppm AI alone, 4 hr @ 30° C.",0.4 log
same,CFU/ml Bacteria Log Reduction vs Control,"[1]; MI 50 ppm AI alone, 24 hr @ 30° C.",−0.6 log
same,CFU/ml Bacteria Log Reduction vs Control,"[1]; MI 50 ppm AI alone, 48 hr @ 30° C.",−1.6 log
same,CFU/ml Bacteria Log Reduction vs Control,"[1]; MI 75 ppm AI alone, 30 min @ 30° C.",0.2 log
same,CFU/ml Bacteria Log Reduction vs Control,"[1]; MI 75 ppm AI alone, 1 hr @ 30° C.",0.2 log
same,CFU/ml Bacteria Log Reduction vs Control,"[1]; MI 75 ppm AI alone, 4 hr @ 30° C.",−0.3 log
same,CFU/ml Bacteria Log Reduction vs Control,"[1]; MI 75 ppm AI alone, 24 hr @ 30° C.",0.2 log
same,CFU/ml Bacteria Log Reduction vs Control,"[1]; MI 75 ppm AI alone, 48 hr @ 30° C.",−2.0 log
same,CFU/ml Bacteria Log Reduction vs Control,"[1]; MI 100 ppm AI alone, 168 @ 30° C.",−2.8 log
same,CFU/ml Bacteria Log Reduction vs Control,"[1]; MI 100 ppm AI alone, 30 min @ 30° C.",0.4 log
same,CFU/ml Bacteria Log Reduction vs Control,"[1]; MI 100 ppm AI alone, 1 hr @ 30° C.",0.6 log
same,CFU/ml Bacteria Log Reduction vs Control,"[1]; MI 100 ppm AI alone, 4 hr @ 30° C.",0.2 log
same,CFU/ml Bacteria Log Reduction vs Control,"[1]; MI 100 ppm AI alone, 24 hr @ 30° C.",0.8 log
same,CFU/ml Bacteria Log Reduction vs Control,"[1]; MI 100 ppm AI alone, 48 hr @ 30° C.",1.7 log
same,CFU/ml Bacteria Log Reduction vs Control,"[1]; MI 100 ppm AI alone, 72 hr @ 30° C.",0.0 log
same,CFU/ml Bacteria Log Reduction vs Control,"[1]; MI 150 ppm AI alone, 168 @ 30° C.",−2.0 log
same,CFU/ml Bacteria Log Reduction vs Control,"[1]; MI 150 ppm AI alone, 30 min @ 30° C.",0.6 log
same,CFU/ml Bacteria Log Reduction vs Control,"[1]; MI 150 ppm AI alone, 1 hr @ 30° C.",0.2 log
same,CFU/ml Bacteria Log Reduction vs Control,"[1]; MI 150 ppm AI alone, 4 hr @ 30° C.",0.0 log
same,CFU/ml Bacteria Log Reduction vs Control,"[1]; MI 150 ppm AI alone, 24 hr @ 30° C.",−0.2 log
same,CFU/ml Bacteria Log Reduction vs Control,"[1]; MI 150 ppm AI alone, 48 hr @ 30° C.",1.7 log
same,CFU/ml Bacteria Log Reduction vs Control,"[1]; MI 150 ppm AI alone, 72 hr @ 30° C.",0.4 log
same,MIC Values ALONE,[2]; 1/10 TSB,38 ppm AI
same,MIC Values ALONE,[2]; M9G + 0.1% yeast extract,38 ppm AI
"N#CC(Br)(Br)C(N)=O [DBNPA, 2,2-dibromo-3-nitrilopropionamide]",Minimum Effective Concentration ALONE,[1]; 24 hr,46 ppm AI
same,Minimum Effective Concentration ALONE,[1]; 48 hr,46 ppm AI
same,Minimum Effective Concentration ALONE,[1]; 72 hr,46 ppm AI
same,CFU/ml Bacteria Log Reduction vs Control,"[1]; DBNPA 1 ppm AI alone, 30 min @ 30° C.",0.6 log
same,CFU/ml Bacteria Log Reduction vs Control,"[1]; DBNPA 1 ppm AI alone, 1 hr @ 30° C.",−0.6 log
same,CFU/ml Bacteria Log Reduction vs Control,"[1]; DBNPA 1 ppm AI alone, 4 hr @ 30° C.",−1.0 log
same,CFU/ml Bacteria Log Reduction vs Control,"[1]; DBNPA 1 ppm AI alone, 24 hr @ 30° C.",−2.6 log
same,CFU/ml Bacteria Log Reduction vs Control,"[1]; DBNPA 2 ppm AI alone, 30 min @ 30° C.",−0.1 log
same,CFU/ml Bacteria Log Reduction vs Control,"[1]; DBNPA 2 ppm AI alone, 1 hr @ 30° C.",−0.3 log
same,CFU/ml Bacteria Log Reduction vs Control,"[1]; DBNPA 2 ppm AI alone, 4 hr @ 30° C.",−0.8 log
same,CFU/ml Bacteria Log Reduction vs Control,"[1]; DBNPA 2 ppm AI alone, 24 hr @ 30° C.",−1.4 log
same,CFU/ml Bacteria Log Reduction vs Control,"[1]; DBNPA 5 ppm AI alone, 30 min @ 30° C.",0.4 log
same,CFU/ml Bacteria Log Reduction vs Control,"[1]; DBNPA 5 ppm AI alone, 1 hr @ 30° C.",−0.3 log
same,CFU/ml Bacteria Log Reduction vs Control,"[1]; DBNPA 5 ppm AI alone, 4 hr @ 30° C.",−0.8 log
same,CFU/ml Bacteria Log Reduction vs Control,"[1]; DBNPA 5 ppm AI alone, 24 hr @ 30° C.",−1.6 log
same,CFU/ml Bacteria Log Reduction vs Control,"[1]; DBNPA 9 ppm AI alone, 30 min @ 30° C.",0.4 log
same,CFU/ml Bacteria Log Reduction vs Control,"[1]; DBNPA 9 ppm AI alone, 1 hr @ 30° C.",0.0 log
same,CFU/ml Bacteria Log Reduction vs Control,"[1]; DBNPA 9 ppm AI alone, 4 hr @ 30° C.",−1.0 log
same,CFU/ml Bacteria Log Reduction vs Control,"[1]; DBNPA 9 ppm AI alone, 24 hr @ 30° C.",−2.0 log
same,CFU/ml Bacteria Log Reduction vs Control,"[1]; DBNPA 23 ppm AI alone, 30 min @ 30° C.",0.4 log
same,CFU/ml Bacteria Log Reduction vs Control,"[1]; DBNPA 23 ppm AI alone, 1 hr @ 30° C.",0.2 log
same,CFU/ml Bacteria Log Reduction vs Control,"[1]; DBNPA 23 ppm AI alone, 4 hr @ 30° C.",−1.0 log
same,CFU/ml Bacteria Log Reduction vs Control,"[1]; DBNPA 23 ppm AI alone, 24 hr @ 30° C.",−1.4 log
same,MIC Values ALONE,[2]; 1/10 TSB,45 ppm AI
same,MIC Values ALONE,[2]; M9G + 0.1% yeast extract,45 ppm AI
